# Values of other authors in US6620844B2, “Method for reducing blood insulin levels by reducing in vivo cathepsin L activity” (NewMillennium Pharmaceutical, Inc., priority 2001, dated 2003).
# pKi: −log10 of the molar value.
# What was measured:
# Cathepsin B = Cathepsin B (Homo sapiens, UniProt P07858); details: cited from earlier work; for % of Inhibition, Cathepsin B: at 1 × 10^−6 M
# Cathepsin S = Cathepsin S (Homo sapiens, UniProt P25774); details: at 1 × 10^−6 M; cited from earlier work
# Cathepsin K = biological target: T1, Cathepsin K (Homo sapiens, UniProt P43235); details: cited from earlier work; for % of Inhibition, Cathepsin K: at 1 × 10^−6 M
# T1 sequence (P43235 115-329): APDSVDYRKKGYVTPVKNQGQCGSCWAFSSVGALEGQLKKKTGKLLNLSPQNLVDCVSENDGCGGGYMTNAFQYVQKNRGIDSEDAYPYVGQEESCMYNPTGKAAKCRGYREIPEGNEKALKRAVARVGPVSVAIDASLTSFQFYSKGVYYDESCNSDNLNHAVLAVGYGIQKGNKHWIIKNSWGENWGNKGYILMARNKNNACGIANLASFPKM
# Cathepsin C = Cathepsin C (Homo sapiens, UniProt P53634); details: at 1 × 10^−6 M; cited from earlier work
# Sequence of Cathepsin C (P53634 25-463, species assumed): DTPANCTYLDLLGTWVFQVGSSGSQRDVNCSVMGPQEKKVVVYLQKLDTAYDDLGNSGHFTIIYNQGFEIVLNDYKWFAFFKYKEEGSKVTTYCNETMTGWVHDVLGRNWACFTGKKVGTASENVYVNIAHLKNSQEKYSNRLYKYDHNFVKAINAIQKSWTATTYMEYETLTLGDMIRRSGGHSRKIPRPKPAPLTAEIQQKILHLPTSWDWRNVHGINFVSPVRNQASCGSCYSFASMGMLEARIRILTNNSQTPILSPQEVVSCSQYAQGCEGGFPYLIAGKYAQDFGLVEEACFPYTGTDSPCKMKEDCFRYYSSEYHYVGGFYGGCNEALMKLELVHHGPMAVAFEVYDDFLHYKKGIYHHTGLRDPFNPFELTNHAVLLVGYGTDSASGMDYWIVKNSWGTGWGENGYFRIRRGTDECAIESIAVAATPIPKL
# Cathepsin L = Cathepsin L (Homo sapiens, UniProt P07711); details: cited from earlier work; for % of Inhibition, Cathepsin L: at 1 × 10^−6 M
# Sequence of Cathepsin L (P07711 114-333, species assumed): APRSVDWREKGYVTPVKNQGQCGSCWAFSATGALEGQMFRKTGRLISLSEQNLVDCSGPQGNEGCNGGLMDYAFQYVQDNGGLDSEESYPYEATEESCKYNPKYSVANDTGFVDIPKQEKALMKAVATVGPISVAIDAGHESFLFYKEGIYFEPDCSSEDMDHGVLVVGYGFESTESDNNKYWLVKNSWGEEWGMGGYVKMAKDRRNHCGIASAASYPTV
# Papain = biological target: T2, Papain (Carica papaya, UniProt P00784); details: cited from earlier work
# T2 sequence (P00784 134-345): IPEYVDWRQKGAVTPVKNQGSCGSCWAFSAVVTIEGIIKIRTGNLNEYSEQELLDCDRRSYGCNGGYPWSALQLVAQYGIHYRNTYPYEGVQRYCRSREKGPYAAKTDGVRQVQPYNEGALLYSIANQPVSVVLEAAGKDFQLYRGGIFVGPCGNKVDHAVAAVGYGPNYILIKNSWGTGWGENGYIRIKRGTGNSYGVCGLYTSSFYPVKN
# Sequence of Cathepsin S (P25774 115-331, species assumed): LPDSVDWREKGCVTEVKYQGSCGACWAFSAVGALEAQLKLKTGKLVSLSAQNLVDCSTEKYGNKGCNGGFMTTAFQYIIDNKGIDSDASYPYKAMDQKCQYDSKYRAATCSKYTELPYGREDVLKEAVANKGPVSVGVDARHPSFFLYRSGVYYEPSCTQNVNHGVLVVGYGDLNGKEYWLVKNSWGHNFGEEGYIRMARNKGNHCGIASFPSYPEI
Compound,"% of Inhibition, Cathepsin B (Cathepsin B)","% of Inhibition, Cathepsin S (Cathepsin S)","% of Inhibition, Cathepsin K (Cathepsin K)","% of Inhibition, Cathepsin C (Cathepsin C)","% of Inhibition, Cathepsin L (Cathepsin L)",Cathepsin B: K2nd (Cathepsin B),Papain: K2nd (Papain),Cathepsin L: K2nd (Cathepsin L),pKi (Cathepsin B),pKi (Cathepsin K),pKi (Papain),pKi (Cathepsin L)
CN(C)C(=O)[C@H](Cc1ccccc1)NC(=O)C1O[C@@H]1C(=O)NCCc1ccccn1 (some centres unmarked),0%,30%,0%,0%,100%,,,,,,,
CN(C)C(=O)[C@H](Cc1ccccc1)NC(=O)C1O[C@@H]1C(=O)N[C@@H](Cc1ccccc1)C(=O)N(C)C (some centres unmarked),0%,25%,0%,0%,100%,,,,,,,
CCOC(=O)[C@H]1N[C@@H]1C(=O)NC(CC(C)C)C(=O)COC(=O)c1ccccc1 (some centres unmarked),,,,,,"1,607 M^−1Min^−1","1,533 M^−1Min^−1","16,261 M^−1Min^−1",,,,
O=C(CNC(=O)[C@H](Cc1ccccc1)NC(=O)OCc1ccccc1)NOC(=O)c1ccccc1,,,,,,,,,9.05 to 9.10,7.80 to 7.92,8.30 to 8.70,10.10 to 10.40
